Values of other authors in US20240033249A1, “Drug Implants Containing Darolutamide and Methods of Use Thereof” (The Regents of the University of California, priority 2022, published 2024).

Settings: assuming 600 mg daily dose; systemic (e.g., oral) administration

steady state blood plasma concentration of Darolutamide: about 4.79 mg/L
SMILES: CC(O)c1cc(C(=O)N[C@@H](C)Cn2ccc(-c3ccc(C#N)c(Cl)c3)n2)[nH]n1 (stereo partly shown) [Darolutamide]
